Reference: US7514455B2, “Inhibitors against complex II of electron transport system” (The Kitasato Institute, priority 2002, dated 2009)
Read-outs that look alike come from different tables or passages of the source.

Experiments:
Type in all cases: biochemical
rat liver complex II = molecular target: T1, rat liver complex II (Rattus norvegicus, UniProt P21913+Q641Z9+Q6PCT8); experiment: Inhibition of succinate dehydrogenase activity of rat liver complex II (DCIP reduction)
T1 construct: from tissue; host or cells: rat liver mitochondria
T1 sequence (Q920L2 35-656 partner): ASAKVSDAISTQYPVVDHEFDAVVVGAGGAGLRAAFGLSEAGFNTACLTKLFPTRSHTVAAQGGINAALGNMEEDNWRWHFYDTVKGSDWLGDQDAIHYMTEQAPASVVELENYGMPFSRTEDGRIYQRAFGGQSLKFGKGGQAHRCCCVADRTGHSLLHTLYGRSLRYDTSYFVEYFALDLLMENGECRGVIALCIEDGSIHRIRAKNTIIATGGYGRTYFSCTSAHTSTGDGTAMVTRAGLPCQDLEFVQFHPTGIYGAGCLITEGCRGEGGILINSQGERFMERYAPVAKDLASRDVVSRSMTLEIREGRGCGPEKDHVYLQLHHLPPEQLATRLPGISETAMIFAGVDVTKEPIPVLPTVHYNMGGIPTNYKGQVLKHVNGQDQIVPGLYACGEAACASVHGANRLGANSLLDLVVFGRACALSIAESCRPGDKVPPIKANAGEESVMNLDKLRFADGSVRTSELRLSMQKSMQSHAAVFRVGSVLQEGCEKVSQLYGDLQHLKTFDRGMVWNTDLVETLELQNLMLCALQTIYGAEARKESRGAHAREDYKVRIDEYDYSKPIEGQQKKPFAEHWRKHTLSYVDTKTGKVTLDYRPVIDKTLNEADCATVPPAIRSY
T1 sequence (P21913 31-282): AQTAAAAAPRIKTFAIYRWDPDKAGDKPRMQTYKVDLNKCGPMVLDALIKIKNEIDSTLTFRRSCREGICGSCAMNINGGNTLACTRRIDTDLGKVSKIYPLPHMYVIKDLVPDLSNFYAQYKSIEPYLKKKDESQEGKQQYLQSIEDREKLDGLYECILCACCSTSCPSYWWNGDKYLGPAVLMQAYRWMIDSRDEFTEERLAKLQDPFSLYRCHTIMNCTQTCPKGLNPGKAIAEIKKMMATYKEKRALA
T1 sequence (Q641Z9 30-169 limits assumed): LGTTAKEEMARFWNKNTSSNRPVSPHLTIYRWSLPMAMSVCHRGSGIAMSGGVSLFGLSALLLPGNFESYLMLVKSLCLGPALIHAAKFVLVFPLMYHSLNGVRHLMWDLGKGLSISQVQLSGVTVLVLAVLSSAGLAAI
T1 sequence (Q6PCT8 57-159): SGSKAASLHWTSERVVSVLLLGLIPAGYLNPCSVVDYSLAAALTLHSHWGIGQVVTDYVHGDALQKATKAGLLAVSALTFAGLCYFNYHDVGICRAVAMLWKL
Method: (§1) With regard to the complex II of the rat liver, mitochondria prepared according to the same method described in the referential example 1 was used. Succinate dehydrogenase activity of the complex II was measured by changes of maximum absorption, which was specific to the electron acceptor (DCIP), from oxidized form of DCIP to reduced form with the addition of succinate. Namely, ubiquinone-2 and DCIP were added to the level of 100 ìM and 70 ìM, respectively, into 50 mM phosphate buffer (pH 7.5); atpenin A4 was added therein; further the complex II was added thereto; then potassium succinate with final concentration of 10 mM was added; and the reaction was started at 25° C. Reaction rate was measured by that the formation rate of reduced form of DCIP (amM^−1 1 cm^−1: 21) which accepted electron from succinate was measured at absorption changes of 600 nm. Activity was indicated by molar numbers of DCIP reduced per minute. Potassium cyanide, final concentration of 10 mM, was added due to necessity for prevention of leakage of reduction activity by inhibiting terminal oxidase.
(§2) With regard to the complex II of the rat liver, mitochondria prepared according to the same method described in the referential example 1 was used. Succinate dehydrogenase activity of the complex II was measured by changes of maximum absorption, which was specific to the electron acceptor (DCIP), from oxidized form of DCIP to reduced form with the addition of succinate. […] Reaction rate was measured by that the formation rate of reduced form of DCIP (amM^−1 1 cm^−1: 21) which accepted electron from succinate was measured at absorption changes of 600 nm. […]
as §2
(§3) With regard to the complex II of the rat liver, mitochondria prepared according to the same method described in the referential example 1 was used. Succinate dehydrogenase activity of the complex II was measured by changes of maximum absorption, which was specific to the electron acceptor (DCIP), from oxidized form of DCIP to reduced form with the addition of succinate. […]

[1] = molecular target: T2, bovine heart complex II (succinate-ubiquinone oxidoreductase) (Bos taurus, UniProt P35720+Q3T189+Q95123); experiment: Inhibition of succinate dehydrogenase activity of bovine heart complex II (DCIP reduction)
T2 construct: of the bovine heart, mitochondria prepared according to the method of S. Takamiya et al; from tissue; host or cells: bovine heart mitochondria
T2 sequence (P31039 44-665 partner): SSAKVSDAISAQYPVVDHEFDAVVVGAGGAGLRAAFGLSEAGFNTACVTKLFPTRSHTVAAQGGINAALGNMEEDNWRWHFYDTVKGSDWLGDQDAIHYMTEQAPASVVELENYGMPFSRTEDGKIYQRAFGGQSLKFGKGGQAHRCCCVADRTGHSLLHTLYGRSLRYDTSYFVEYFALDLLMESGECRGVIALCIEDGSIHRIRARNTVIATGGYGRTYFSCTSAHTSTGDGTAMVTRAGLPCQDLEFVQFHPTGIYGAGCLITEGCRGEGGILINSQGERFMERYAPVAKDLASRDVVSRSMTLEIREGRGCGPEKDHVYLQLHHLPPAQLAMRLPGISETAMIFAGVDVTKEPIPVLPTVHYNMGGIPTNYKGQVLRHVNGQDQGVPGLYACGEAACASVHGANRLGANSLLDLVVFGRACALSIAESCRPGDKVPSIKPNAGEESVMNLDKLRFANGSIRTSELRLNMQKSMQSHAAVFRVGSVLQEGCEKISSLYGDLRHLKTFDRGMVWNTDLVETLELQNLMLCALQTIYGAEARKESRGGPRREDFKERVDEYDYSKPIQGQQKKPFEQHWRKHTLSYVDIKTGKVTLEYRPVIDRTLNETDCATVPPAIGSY
T2 sequence (Q3T189 29-280): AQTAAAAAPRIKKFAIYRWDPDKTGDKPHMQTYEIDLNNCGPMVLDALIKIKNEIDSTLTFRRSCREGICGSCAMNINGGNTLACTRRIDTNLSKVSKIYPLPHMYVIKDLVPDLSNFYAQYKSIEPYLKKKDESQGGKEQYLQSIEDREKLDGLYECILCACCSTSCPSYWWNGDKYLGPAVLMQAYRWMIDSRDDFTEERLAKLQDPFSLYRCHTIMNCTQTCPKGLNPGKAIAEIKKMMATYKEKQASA
T2 sequence (P35720 30-169): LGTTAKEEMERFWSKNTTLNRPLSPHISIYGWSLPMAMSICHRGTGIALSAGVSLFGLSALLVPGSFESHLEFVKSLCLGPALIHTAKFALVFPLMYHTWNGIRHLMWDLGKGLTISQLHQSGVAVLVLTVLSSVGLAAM
T2 sequence (Q95123 56-158): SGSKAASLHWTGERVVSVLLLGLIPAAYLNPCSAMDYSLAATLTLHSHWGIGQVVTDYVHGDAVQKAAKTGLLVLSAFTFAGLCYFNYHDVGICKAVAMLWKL
Method: With regard to the complex II (succinate-ubiquinone oxidoreductase) of the bovine heart, mitochondria prepared according to the method of S. Takamiya et al. (Developmental changes in the respiratory chain of Ascaris mitochondria, Biochim. Biophys. Acta, 1141, 65-71, 1993) were used. Succinate dehydrogenase activity of the complex II was measured by changes of maximum absorption, which was specific to the electron acceptor (DCIP), from oxidized form of 2,6-dichlorophenolindophenol (DCIP, Sigma Inc.) to reduced form with the addition of succinate.
With regard to the complex II of the bovine heart, mitochondria prepared according to the same method described in the referential example 1 was used. Succinate dehydrogenase activity of the complex II was measured by changes of maximum absorption, which was specific to the electron acceptor (DCIP), from oxidized form of DCIP to reduced form with the addition of succinate. […] Reaction rate was measured by that the formation rate of reduced form of DCIP (amM^−1 1 cm^−1: 21) which accepted electron from succinate was measured at absorption changes of 600 nm. Activity was indicated by molar numbers of DCIP reduced per minute. Potassium cyanide, final concentration of 10 mM, was added due to necessity for prevention of leakage of reduction activity by inhibiting terminal oxidase.
With regard to the complex II (succinate-ubiquinone oxidoreductase) of the bovine heart, mitochondria prepared according to the same method described in the referential example 1 was used. Succinate dehydrogenase activity of the complex II was measured by changes of maximum absorption, which was specific to the electron acceptor (DCIP), from oxidized form of DCIP to reduced form with the addition of succinate. […] Reaction rate was measured by that the formation rate of reduced form of DCIP (amM^−1 1 cm^−1: 21) which accepted electron from succinate was measured at absorption changes of 600 nm. Activity was indicated by molar numbers of DCIP reduced per minute. Potassium cyanide, final concentration of 10 mM, was added due to necessity for prevention of leakage of reduction activity by inhibiting terminal oxidase.
With regard to the complex II of the bovine heart, mitochondria prepared according to the same method described in the referential example 1 was used. Succinate dehydrogenase activity of the complex II was measured by changes of maximum absorption, which was specific to the electron acceptor (DCIP), from oxidized form of DCIP to reduced form with the addition of succinate.

Ascaris suum complex II = molecular target: T3, Ascaris suum complex II (Ascaris suum, UniProt O44074+P92506+P92507); experiment: Inhibition of succinate dehydrogenase activity of Ascaris suum complex II (DCIP reduction)
T3 construct: the purified complex II prepared according to the method of F. Saruta et al; from tissue; complex II purified by the method of Saruta et al. 1995
T3 sequence (Q33862 19-645): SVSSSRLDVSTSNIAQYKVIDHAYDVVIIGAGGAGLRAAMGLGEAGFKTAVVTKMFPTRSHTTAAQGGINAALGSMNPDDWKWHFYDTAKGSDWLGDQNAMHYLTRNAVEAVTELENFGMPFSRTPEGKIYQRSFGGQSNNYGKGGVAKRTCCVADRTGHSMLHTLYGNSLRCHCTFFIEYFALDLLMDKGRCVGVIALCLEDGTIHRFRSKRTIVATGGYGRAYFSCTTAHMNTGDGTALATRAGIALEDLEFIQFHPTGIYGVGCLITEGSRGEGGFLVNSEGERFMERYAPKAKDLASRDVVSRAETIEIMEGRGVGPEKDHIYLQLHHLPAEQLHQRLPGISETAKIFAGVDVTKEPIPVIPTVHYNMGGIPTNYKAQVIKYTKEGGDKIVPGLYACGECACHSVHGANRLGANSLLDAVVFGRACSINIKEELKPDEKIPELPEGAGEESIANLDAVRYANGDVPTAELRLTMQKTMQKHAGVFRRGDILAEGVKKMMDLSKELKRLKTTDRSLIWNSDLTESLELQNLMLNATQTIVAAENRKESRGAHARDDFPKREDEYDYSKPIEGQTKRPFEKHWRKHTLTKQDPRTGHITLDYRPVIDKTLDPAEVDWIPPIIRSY
T3 sequence (P92506 32-188): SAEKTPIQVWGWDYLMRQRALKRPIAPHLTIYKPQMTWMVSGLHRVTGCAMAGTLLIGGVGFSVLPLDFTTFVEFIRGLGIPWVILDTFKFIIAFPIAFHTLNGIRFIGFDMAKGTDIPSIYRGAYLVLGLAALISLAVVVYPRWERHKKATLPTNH
T3 sequence (O44074 22-282): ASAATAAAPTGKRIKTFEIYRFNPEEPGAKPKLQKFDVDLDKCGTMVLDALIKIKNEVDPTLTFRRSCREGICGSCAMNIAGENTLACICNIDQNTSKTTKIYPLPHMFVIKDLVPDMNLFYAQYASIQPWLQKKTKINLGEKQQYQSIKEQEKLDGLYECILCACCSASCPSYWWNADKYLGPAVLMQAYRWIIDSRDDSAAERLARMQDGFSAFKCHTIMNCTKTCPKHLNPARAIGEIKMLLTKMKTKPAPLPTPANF
T3 sequence (P92507 26-156): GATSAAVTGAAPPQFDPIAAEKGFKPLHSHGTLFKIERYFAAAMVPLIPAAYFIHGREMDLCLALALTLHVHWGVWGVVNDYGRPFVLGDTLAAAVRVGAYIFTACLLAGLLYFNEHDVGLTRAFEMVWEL
Method: With regard to the complex II of the Ascaris suum, the purified complex II prepared according to the method of F. Saruta et al. [Stage-specific Isoforms of Complex II (Succinate-Ubiquinone Oxidoreductase) in Mitochondria from the Parasitic Nematode, Ascaris suum: J. Biol. Chem. 270, 928-932, 1995] was used. Succinate dehydrogenase activity of the complex II was measured by changes of maximum absorption, which was specific to the electron acceptor (DCIP), from oxidized form of DCIP to reduced form with the addition of succinate.
as §1, with “Namely,” for “With regard to the complex II of the rat liver, mitochondria prepared according to the same method described in the referential example 1 was used. Succinate dehydrogenase activity of the complex II was measured by changes of maximum absorption, which was specific to the electron acceptor (DCIP), from oxidized form of DCIP to reduced form with the addition of succinate. Namely,”
as §2, with “the Ascaris suum, the purified complex II” for “the rat liver, mitochondria”, “method of” for “method described in the referential”, “example 3” for “example 1”
as §2, with “the Ascaris suum, the purified complex II” for “the rat liver, mitochondria”, “method of” for “method described in the referential”, “example 3” for “example 1”
as §3, with “Ascaris suum, the purified complex II” for “rat liver, mitochondria”, “of” for “described in the referential”, “3” for “1”

[2] = rat liver mitochondria, ubiquinone-2, DCIP, 10 mM succinate, pH 7.5, 25° C., read-out: 50% inhibitory concentration of the complex II (IC50), Rat liver
[3] = bovine heart mitochondria, ubiquinone-2, DCIP, 10 mM succinate, pH 7.5, 25° C., read-out: 50% inhibitory concentration of the complex II (IC50), Bovine heart
[4] = purified Ascaris suum complex II, ubiquinone-2, DCIP, 10 mM succinate, pH 7.5, 25° C., read-out: 50% inhibitory concentration of the complex II (IC50), Ascaris suum

`COc1nc(O)c(C(=O)C(C)CC(C)C(C)Cl)c(O)c1OC` (centres unmarked) [Atpenin A4, atpenin A4] showed an IC50 (rat liver complex II; [2]) of 24 nM, an IC50 [1, 3] of 11 nM and an IC50 (Ascaris suum complex II; [4]) of 220 nM.
In the case of `COc1[nH]c(=O)c(C(=O)C(C)CC(C)C(Cl)CCl)c(O)c1OC` (centres unmarked) [Atpenin A5, atpenin A5], the IC50 (rat liver complex II) is reported as 3.7 nM, the IC50 [1] is reported as 3.6 nM and the IC50 (Ascaris suum complex II) is reported as 32 nM.
Compound `CCC(C)CC(C)C(=O)c1c(O)nc(OC)c(OC)c1O` (centres unmarked) [Atpenin B, atpenin B] has an IC50 (rat liver complex II; [2]) of 20 nM, an IC50 [1, 3] of 10 nM and an IC50 (Ascaris suum complex II; [4]) of 50 nM.
`CC1=C(C(=O)Nc2ccccc2)SCCO1` [Carboxin, carboxin, reference compound] showed an IC50 [1, 3] of 1100 nM.
`C/C=C/CC(C)C(=O)c1c(O)c(OC)c(OC)[nH]c1=O` (centres unmarked) [Harzianopyridone, harzianopyridone] gave an IC50 (rat liver complex II; [2]) of 200 nM, an IC50 [1, 3] of 17 nM and an IC50 (Ascaris suum complex II; [4]) of 2000 nM.
`O=C(CC(=O)C(F)(F)F)c1cccs1` [Thenoyltrifluoro Aceton, thenoyltrifluoroacetone, reference compound] showed an IC50 [1, 3] of 5800 nM.
